The source of these data is US10669272B2, “Substituted naphthyridinone compounds useful as T cell activators” (BRISTOL-MYERS SQUIBB COMPANY, priority 2018, dated 2020).

pEC50, pIC50: −log10 of the molar value. Read-outs that look alike come from different tables or passages of the source.

One assay has as its target T1, human DGKα (Homo sapiens, UniProt P23743).
T1 construct: TVMV protease cleavage site (C); Hexa-His (C); made in house; host or cells: Sf9 insect cells (baculovirus, Bac-to-Bac)
The assay is described as follows: DGKα LIPGLO assay (extruded liposome substrate), in vitro DGK inhibition. To be noted: read-out: DGKa LIPGLO IC50. The format is biochemical.

The test system of a further assay is naïve human CD8 T cells. The assay is described as follows: Human CD8 T cells IFN-γ assay.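 Note: Naïve human CD8 T cells stimulated with plate-bound anti-CD3 and soluble anti-CD28, IFN-γ in supernatant quantified by AlphaLISA and converted to pg/mL.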 The format is cell-based. To be noted: normalized to 3 μM reference compound with anti-CD3 plus anti-CD28 as 100% activation, read-out: HuCD8 INFG Normalized EC50.
A further assay concerns the target T2, human DGKζ (Homo sapiens, UniProt Q13574).
T2 construct: TVMV protease cleavage site (C); Hexa-His (C); made in house; host or cells: Sf9 insect cells (baculovirus, Bac-to-Bac)
Put plainly: DGKζ LIPGLO assay (extruded liposome substrate), in vitro DGK inhibition. The format is biochemical. The conditions noted are these: read-out: DGKz LIPGLO IC50.

The test system of assay [1] is OT-1 CD8+ T cells with SIINFEKL-loaded MC38 tumor cells. Put plainly: Murine cytotoxic T lymphocyte assay (IFN-γ, OT-1 CTL with MC38 tumor cells). The conditions noted are these: read-out: msCTL INFg IC50. The format is cell-based, mouse. The source says:
5. Murine Cytotoxic T Lymphocyte Assay
An antigen-specific cytolytic T-cell (CTL) assay was developed to evaluate functionally the ability of DGKα and DGKζ inhibitors to enhance effector T cell mediated tumor cell killing activity. CD8+ T-cells isolated from the OT-1 transgenic mouse recognize antigen presenting cells, MC38, that present the ovalbumin derived peptide […]. Recognition of the cognate antigen initiates the cytolytic activity of the OT-1 antigen-specific CD8+ T cells.
Functional CTL cells were generated as follows: OT-1 splenocytes from 8-12 week old mice were isolated and expanded in the presence of the […] peptide at 1 μg/mL and mIL2 at 10 U/mL. After three days, fresh media with […] was added. On day 5 of the expansion, the CD8+ T cells were isolated and ready for use. Activated CTL cells may be stored frozen for 6 months. Separately, one million MC38 tumor cells were pulsed with 1 μg/mL of […]-OVA peptide for 3 hours at 37° C. The cells were washed (3×) with fresh media to remove excess peptide. Finally, CTL cells that were pretreated with DGK inhibitors for 1 hour in a 96-well U bottom plate were combined with the antigen loaded MC38 tumor cells at a 1:10 ratio. The cells were then spun at 700 rpm for 5 min and placed in an incubator overnight at 37° C. After 24 hours, the supernatant was collected for analysis of IFN-γ cytokine levels by AlphaLisa purchased from Perkin Elmer.

Another assay has as its system Human venous whole blood. Put plainly: Human whole blood IFN-γ assay.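 Note: blood from healthy donors exposed to compound for 1 h before stimulation with anti-CD3 and anti-CD28 at 1 µg/mL each, IFN-γ quantified in supernatant by AlphaLISA.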 Format: cell-based. The conditions noted are these: human whole blood, read-out: INFg Whole Blood Normalized Agonist EC50.
Setting [2] is: Homo sapiens, 24 h, normalized to 3 μM reference compound with anti-CD3 plus anti-CD28 as 100% activation.
The mark [3] stands for this setting: Homo sapiens, 24 h, anti-CD3 plus anti-CD28, 24 hours, 3 μM reference compound = 100% activation.
[4] abbreviates: Mus musculus, MC-38, murine CTL, IFN-γ.

T1 sequence (P23743 with tags, fused parts or gaps): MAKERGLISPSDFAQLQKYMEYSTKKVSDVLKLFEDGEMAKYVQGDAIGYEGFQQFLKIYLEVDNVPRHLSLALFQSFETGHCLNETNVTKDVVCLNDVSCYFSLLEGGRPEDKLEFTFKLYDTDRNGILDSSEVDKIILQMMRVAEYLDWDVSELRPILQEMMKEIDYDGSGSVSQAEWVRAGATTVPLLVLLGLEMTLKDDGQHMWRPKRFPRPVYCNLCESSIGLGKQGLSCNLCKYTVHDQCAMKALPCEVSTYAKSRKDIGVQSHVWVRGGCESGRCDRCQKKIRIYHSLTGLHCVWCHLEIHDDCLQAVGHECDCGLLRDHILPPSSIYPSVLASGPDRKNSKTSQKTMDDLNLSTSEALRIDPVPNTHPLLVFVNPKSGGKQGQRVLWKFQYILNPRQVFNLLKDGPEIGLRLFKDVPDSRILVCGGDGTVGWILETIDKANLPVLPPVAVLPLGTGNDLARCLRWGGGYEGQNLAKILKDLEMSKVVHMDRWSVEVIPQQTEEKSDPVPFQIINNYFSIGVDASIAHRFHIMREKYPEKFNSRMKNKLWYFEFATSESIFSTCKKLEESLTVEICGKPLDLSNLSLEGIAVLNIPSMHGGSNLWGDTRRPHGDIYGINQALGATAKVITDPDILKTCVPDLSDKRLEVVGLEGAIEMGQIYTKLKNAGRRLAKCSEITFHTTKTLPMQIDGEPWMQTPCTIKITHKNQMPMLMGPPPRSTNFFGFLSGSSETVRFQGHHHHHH
T2 sequence (Q13574 with tags, fused parts or gaps isoform Q13574-4): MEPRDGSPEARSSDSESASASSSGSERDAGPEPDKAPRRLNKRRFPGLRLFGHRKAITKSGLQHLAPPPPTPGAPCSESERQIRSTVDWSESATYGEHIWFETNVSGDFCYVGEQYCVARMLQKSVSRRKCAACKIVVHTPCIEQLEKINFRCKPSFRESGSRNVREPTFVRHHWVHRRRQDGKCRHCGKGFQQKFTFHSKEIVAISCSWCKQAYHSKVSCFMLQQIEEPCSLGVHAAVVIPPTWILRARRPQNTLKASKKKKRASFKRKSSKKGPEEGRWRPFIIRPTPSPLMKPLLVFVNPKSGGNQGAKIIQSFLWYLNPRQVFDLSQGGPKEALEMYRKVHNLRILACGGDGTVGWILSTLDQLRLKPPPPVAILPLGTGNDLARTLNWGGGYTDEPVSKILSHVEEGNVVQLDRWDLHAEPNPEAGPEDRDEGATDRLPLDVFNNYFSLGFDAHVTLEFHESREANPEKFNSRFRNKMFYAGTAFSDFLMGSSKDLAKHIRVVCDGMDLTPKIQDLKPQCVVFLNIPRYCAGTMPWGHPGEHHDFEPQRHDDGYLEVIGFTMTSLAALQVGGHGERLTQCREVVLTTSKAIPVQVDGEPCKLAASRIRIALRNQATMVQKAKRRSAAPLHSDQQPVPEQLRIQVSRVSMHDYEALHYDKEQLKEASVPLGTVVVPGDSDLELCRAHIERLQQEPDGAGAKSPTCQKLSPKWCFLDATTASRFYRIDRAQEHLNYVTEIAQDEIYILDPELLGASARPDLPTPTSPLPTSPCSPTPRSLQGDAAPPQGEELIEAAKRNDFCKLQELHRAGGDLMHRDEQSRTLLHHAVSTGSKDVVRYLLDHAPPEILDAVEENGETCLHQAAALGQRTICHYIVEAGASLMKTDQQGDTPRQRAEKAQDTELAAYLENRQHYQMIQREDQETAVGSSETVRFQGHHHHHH
Method for Human venous whole blood: Human Whole Blood IFN-γ Assay
Human venous whole blood (22.5 μL per well), obtained from healthy donors, was pre-treated with compounds for one hour at 37° C. in a humidified 95% air/5% CO2 incubator. The blood was stimulated with 2.5 μL anti-human CD3 and anti-CD28 mAb at a final concentration of 1 μg/mL each for 24 hours at 37° C. IFN-γ in the supernatants was measured using AlphLISA kit (Cat # AL217).
Method for naïve human CD8 T cells: Human CD8 T Cells IFN-γ Assay
Frozen naïve human CD8 T cells were thawed in AIM-V media, incubated for 2 h in 37° C., and counted. The 384-well tissue culture plate was coated overnight at 4° C. with 20 μL anti-human CD3 at 0.05 μg/mL in PBS, which was removed off the plate before 40,000 cells per 40 microliters CD8 T cells with 0.1 μg/mL soluble anti-human CD28 were added to each well. The compounds were transferred using an Echo liquid handler to the cell plate immediately after the cells were plated. After 20 h incubation at 37° C. incubator, 3 microliters per well supernatants transferred into a new 384-well white assay plate for cytokine measurement.
Interferon-γ (IFN-γ) was quantitated using the AlphLISA kit (Cat # AL217) as described by the manufacturer manual (Perkin Elmer). The counts from each well were converted to IFN-γ concentration (pg/mL).

One may read the pIC50 as −log10 of the IC50, conventionally taken in molar units. A word on the pEC50: it is the negative decadic logarithm of the EC50, by convention in mol/L. As to `Cn1c(=O)c(C#N)c(N2CCN(C(c3ccc(F)cc3)c3ccc(F)cc3)C(CO)C2)c2nc(C#N)ccc21` (single isomer, unassigned) [Example 15, 8-(4-(bis(4-fluorophenyl)methyl)-3-(hydroxymethyl)piperazin-1-yl)-5-methyl-6-oxo-5,6-dihydro-1,5-naphthyridine-2,7-dicarbonitrile], the pIC50 at human DGKα (liposome (LIPGLO) assay) is 5.29; at human DGKζ (liposome (LIPGLO) assay), 5.18; in assay [1] (Mus musculus, MC-38) it was 6.04. Further, the pEC50 in the assay on naïve human CD8 T cells was 5.00.

For `Cn1c(=O)c(C#N)c(N2CCN(C(c3ccc(F)cc3)c3ccc(F)cc3)C(CO)C2)c2nc(C#N)ccc21` (single isomer, unassigned) [Example 16, 8-(4-(bis(4-fluorophenyl)methyl)-3-(hydroxymethyl)piperazin-1-yl)-5-methyl-6-oxo-5,6-dihydro-1,5-naphthyridine-2,7-dicarbonitrile], the pIC50 was 5.12 on human DGKα (liposome (LIPGLO) assay), 4.92 at human DGKζ (liposome (LIPGLO) assay) and 5.85 in assay [1]. The pEC50 in the assay on naïve human CD8 T cells is 6.28.

On to `Cn1c(=O)c(C#N)c(N2CCN(C(c3ccc(F)cc3)c3ccc(F)cc3)C(C(=O)O)C2)c2nc(C#N)ccc21` (single isomer, unassigned) [Example 54, 1-(bis(4-fluorophenyl)methyl)-4-(3,6-dicyano-1-methyl-2-oxo-1,2-dihydro-1,5-naphthyridin-4-yl)piperazine-2-carboxylic acid], for which the pIC50 is 3.70 at human DGKα (liposome (LIPGLO) assay); 3.92 at human DGKζ (liposome (LIPGLO) assay); 5.00 in assay [1] (Mus musculus, MC-38). Besides, the pEC50 with naïve human CD8 T cells was 5.00.

`Cn1c(=O)c(C#N)c(N2CCN(C(c3ccc(F)cc3)c3ccc(F)cc3)C(C(=O)NC3CC3)C2)c2nc(C#N)ccc21` (single isomer, unassigned) [Example 60, 1-(bis(4-fluorophenyl)methyl)-N-cyclopropyl-4-(3,6-dicyano-1-methyl-2-oxo-1,2-dihydro-1,5-naphthyridin-4-yl)piperazine-2-carboxamide]: the pIC50 was 3.62 on human DGKα (liposome (LIPGLO) assay); 4.14 on human DGKζ (liposome (LIPGLO) assay); 5.00 in assay [1] (Mus musculus, MC-38). Also, the pEC50 with naïve human CD8 T cells (Homo sapiens, T-cell, 20 h) is 5.00.

In the case of `CC(C)OC(=O)C1CN(c2cc(=O)n(C)c3ccc(C#N)nc23)CCN1C(c1ccc(F)cc1)c1ccc(F)cc1` (single isomer, unassigned) [Example 63, Isopropyl 1-(bis(4-fluorophenyl)methyl)-4-(6-cyano-1-methyl-2-oxo-1,2-dihydro-1,5-naphthyridin-4-yl)piperazine-2-carboxylate], the pIC50 on human DGKα (liposome (LIPGLO) assay) was 3.62; at human DGKζ (liposome (LIPGLO) assay), 3.62; in assay [1], 5.80. Also, in the assay on naïve human CD8 T cells, the pEC50 is 6.68.

On to `CC(C)OC(=O)C1CN(c2c(C#N)c(=O)n(C)c3ccc(C#N)nc23)CCN1C(c1ccc(F)cc1)c1ccc(F)cc1` (single isomer, unassigned) [Example 64, Isopropyl 1-(bis(4-fluorophenyl)methyl)-4-(3,6-dicyano-1-methyl-2-oxo-1,2-dihydro-1,5-naphthyridin-4-yl)piperazine-2-carboxylate], for which the pIC50 is 3.62 on human DGKα (liposome (LIPGLO) assay); 3.62 on human DGKζ (liposome (LIPGLO) assay); 5.06 in assay [1] (Mus musculus, MC-38). For the same molecule, the pEC50 in the assay on naïve human CD8 T cells was 5.00.

Consider `COC(=O)C1CN(C(c2ccc(F)cc2)c2ccc(F)cc2)CCN1c1cc(=O)n(C)c2ccc(C#N)nc12` (single isomer, unassigned) [Example 136, Methyl 4-(bis(4-fluorophenyl)methyl)-1-(6-cyano-1-methyl-2-oxo-1,2-dihydro-1,5-naphthyridin-4-yl)piperazine-2-carboxylate], for which the pIC50 is 4.60 on human DGKα (liposome (LIPGLO) assay), 4.41 on human DGKζ (liposome (LIPGLO) assay) and 6.28 in assay [1]. Moreover, the pEC50 in the assay on naïve human CD8 T cells (Homo sapiens, T-cell, 20 h) was 6.02.

Turning to `Cn1c(=O)cc(N2CCN(C(c3ccc(F)cc3)c3ccc(F)cc3)CC2C(=O)NC2CC2)c2nc(C#N)ccc21` (single isomer, unassigned) [Example 139, 4-(bis(4-fluorophenyl)methyl)-1-(6-cyano-1-methyl-2-oxo-1,2-dihydro-1,5-naphthyridin-4-yl)-N-cyclopropylpiperazine-2-carboxamide], the pIC50 on human DGKα (liposome (LIPGLO) assay) is 3.62; on human DGKζ (liposome (LIPGLO) assay) it was 3.96; in assay [1] (Mus musculus, MC-38), 5.00. The pEC50 in the assay with naïve human CD8 T cells was 4.30.

In the case of `Cn1c(=O)cc(N2CCN(C(c3ccc(F)cc3)c3ccc(F)cc3)CC2C#N)c2nc(C#N)ccc21` (single isomer, unassigned) [Example 143, 8-(4-(bis(4-fluorophenyl)methyl)-2-cyanopiperazin-1-yl)-5-methyl-6-oxo-5,6-dihydro-1,5-naphthyridine-2-carbonitrile], the pIC50 at human DGKα (liposome (LIPGLO) assay) was 5.27; at human DGKζ (liposome (LIPGLO) assay) it was 5.19; in assay [1] (Mus musculus, MC-38), 6.48. Besides, in the assay on Human venous whole blood (setting [2]), the pEC50 is 5.24.

Consider `Cn1c(=O)cc(N2CCN(C(c3ccc(F)cc3)c3ccc(F)cc3)CC2c2ccccc2)c2nc(C#N)ccc21` (single isomer, unassigned) [Example 156, 8-(4-(bis(4-fluorophenyl)methyl)-2-phenylpiperazin-1-yl)-5-methyl-6-oxo-5,6-dihydro-1,5-naphthyridine-2-carbonitrile], for which the pIC50 at human DGKα (liposome (LIPGLO) assay) is 5.07; on human DGKζ (liposome (LIPGLO) assay), 5.01; in assay [1], 6.40. Besides, the pEC50 in the assay with Human venous whole blood (normalized to 3 μM reference compound with anti-CD3 plus anti-CD28 as 100% activation) is 5.16.

As for `Cc1ccc(C(c2ccc(F)cc2)N2C[C@H](C)N(c3cc(=O)n(C)c4ccc(C#N)nc34)C[C@H]2C)cc1` (single isomer, unassigned) [Example 251], the pIC50 was 6.17 at human DGKα (liposome (LIPGLO) assay); 6.49 on human DGKζ (liposome (LIPGLO) assay); 7.49 in assay [1] (Mus musculus, MC-38). Further, the negative-log EC50 (pEC50) with Human venous whole blood (setting [2]) was 6.36.

`Cc1ccc(C(C)N2CCN(c3c(C#N)c(=O)n(C)c4ccc(C#N)nc34)C[C@H]2C)cc1` (single isomer, unassigned) [Example 952]: the pIC50 at human DGKα (DGKα liposome (LIPGLO) assay) was 6.23; on human DGKζ (DGKζ liposome (LIPGLO) assay), 5.64; in assay [1] (murine CTL, IFN-γ), 5.23. In addition, in the assay with Human venous whole blood (setting [3]), the pEC50 is 5.52.

With `COC(=O)[C@@H]1CN(c2cc(=O)n(C)c3ccc(C#N)nc23)CCN1C(c1ccc(F)cc1)c1ccc(F)cc1` [Example 66, Methyl (S)-1-(bis(4-fluorophenyl)methyl)-4-(6-cyano-1-methyl-2-oxo-1,2-dihydro-1,5-naphthyridin-4-yl)piperazine-2-carboxylate], the pIC50 is 5.62 at human DGKα (liposome (LIPGLO) assay); 5.92 at human DGKζ (liposome (LIPGLO) assay); 7.18 in assay [1] (Mus musculus, MC-38). In addition, in the assay with naïve human CD8 T cells (Homo sapiens, T-cell, 20 h), the pEC50 is 6.80.

With `C[C@@H]1CN(c2c(Cl)c(=O)n(C)c3ccc(C#N)nc23)CCN1C(c1ccc(Cl)cc1)c1ccc(Cl)cc1` [Example 105, (R)-8-(4-(bis(4-chlorophenyl)methyl)-3-methylpiperazin-1-yl)-7-chloro-5-methyl-6-oxo-5,6-dihydro-1,5-naphthyridine-2-carbonitrile, dimethylformamide], the pIC50 on human DGKα (liposome (LIPGLO) assay) is 5.85; at human DGKζ (liposome (LIPGLO) assay), 6.09; in assay [1] (Mus musculus, MC-38) it was 7.13. Also, in the assay on Human venous whole blood (setting [2]), the pEC50 is 5.37.

For `Cc1nnc(C2CN(c3cc(=O)n(C)c4ccc(C#N)nc34)CCN2C(c2ccc(F)cc2)c2ccc(F)cc2)o1` (centres unmarked) [Example 126, 8-(4-(bis(4-fluorophenyl)methyl)-3-(5-methyl-1,3,4-oxadiazol-2-yl)piperazin-1-yl)-5-methyl-6-oxo-5,6-dihydro-1,5-naphthyridine-2-carbonitrile], the pIC50 at human DGKα (liposome (LIPGLO) assay) is 3.64; at human DGKζ (liposome (LIPGLO) assay), 4.51; in assay [1] (Mus musculus, MC-38), 5.00. Besides, in the assay with Human venous whole blood (setting [2]), the pEC50 was 4.70.

`C[C@@H]1CN(c2c(C#N)c(=O)n(C)c3ccc(C#N)nc23)CCN1Cc1ccc(F)cc1F` [Example 985]: the pIC50 on human DGKα (DGKα liposome (LIPGLO) assay) is 5.66; on human DGKζ (DGKζ liposome (LIPGLO) assay), 5.52; in assay [1] (setting [4]), 5.39. Moreover, in the assay on Human venous whole blood (setting [3]), the pEC50 was 5.01.

As for `C[C@@H]1CN(c2c(C#N)c(=O)n(C)c3ccc(C#N)nc23)CCN1Cc1c(F)cc(F)cc1F` [Example 986], the pIC50 on human DGKα (DGKα liposome (LIPGLO) assay) is 5.38; on human DGKζ (DGKζ liposome (LIPGLO) assay), 5.59; in assay [1] (setting [4]), 5.43. For the same molecule, the pEC50 in the assay on Human venous whole blood (setting [3]) is 4.70.
